In article PMC467089, “Click estradiol dimers with novel aromatic bridging units: synthesis and anticancer evaluation” (Journal of Enzyme Inhibition and Medicinal Chemistry, 2024):

Key:
[1] = system: K562-TAX (paclitaxel-resistant variant of K562); assay: MTS cytotoxicity assay, K562-TAX; format: cell-based, human; conditions: for IC50: Homo sapiens, K562-Tax, 72 h, read-out: IC50 cytotoxic activity K562-TAX
Method: (§1) The p53 deficient variant, HCT116p53−/−, was purchased from Horizon Discovery (Cambridge, UK). The daunorubicin-resistant CCRF-CEM cell line CEM-DNR bulk and paclitaxel-resistant K562-TAX sublines were developed in-house by exposing parental cell lines to escalating concentrations of daunorubicin and paclitaxel, respectively. Cells were maintained in the recommended culture medium (Sigma-Aldrich, St. Louis, MO) supplemented with 10% foetal calf serum, 100 U/mL penicillin, and 100 μg/mL streptomycin. The HUVEC line was obtained from PromoCell (Heidelberg, Germany). The cells were cultured in endothelial cell growth medium with SupplementMix for endothelial cells (PromoCell, Heidelberg, Germany). The incubation conditions were a humidified atmosphere of 95% air and 5% CO2 at 37 °C[10]. Cells were seeded in 384-well plates and after overnight incubation treated with compounds. All tested compounds were dissolved in 100% DMSO, and fourfold serial dilutions were performed using an Echo550 liquid handler (Labcyte, San Jose, CA). The experiments were performed in technical duplicates and three biological replicates. Cells were incubated with compounds for 72 h and thereafter 5 μL of MTS reagent was added to each well.

[2] = system: HCT116p53−/− (p53 gene null variant of HCT116); assay: MTS cytotoxicity assay, HCT116p53−/−; format: cell-based; conditions: Homo sapiens, HCT-116, 72 h, read-out: IC50 cytotoxic activity HCT116p53-
Method: as §1

[3] = system: HCT116 (colorectal adenocarcinoma); assay: MTS cytotoxicity assay, HCT116; format: cell-based; conditions: Homo sapiens, HCT-116, 72 h, read-out: IC50 cytotoxic activity HCT116
Method: as §1

porcine brain tubulin = molecular target: T1, porcine brain tubulin (Sus scrofa, UniProt P02550+P02554); assay: Tubulin polymerisation assay; format: biochemical; conditions: 10 μmol/L, Vmax relative to DMSO
T1 construct: purchased Cytoskeleton, Denver, CO; host or cells: porcine brain (tissue-purified)
Method: Tubulin polymerisation assay kit (Cytoskeleton, Denver, CO) was used according to the manufacturer’s instructions. Polymerisation of porcine brain tubulin (>99% purity) was measured using an EnVision Multilabel Plate Reader (PerkinElmer, Waltham, MA) at 37 °C, in the presence of either 10 μmol/L test compounds or DMSO. Maximum polymerisation velocity (Vmax) was calculated from the polymerisation curves. Data visualisation was performed in OriginPro 2018b (b9.5.5.409) software (OriginLab Corporation, Northampton, MA)[10].

[4] = MTS cytotoxicity assay, BJ; format: cell-based; conditions: human
Method: as §1

CCRF-CEM lymphoblasts [5] = assay: BrU incorporation analysis (RNA synthesis); format: cell-based, human
Method: (§2) To further characterise the mode of action of studied compounds, we analysed the cell cycle profile of CCRF-CEM cells treated with compounds for 24 h. […] The compounds ED1–ED9 and ED12 induced arrest in G2/M phase of the cell cycle (Figure 2(A)). To differentiate between G2 block and mitotic arrest, we used phospho-histone H3 (Ser10) mitotic marker (Figure 2(B)). […] Generally, dimers induced a dose-dependent increase of sub G1 cell population with fragmented DNA except for ED2 and ED4 (Figure 2(C)). […] To assess the proliferation of treated cells, they were subjected to 5-bromo-2-deoxyuridine (BrDU) labelling. […] Analogously, changes in 5-bromouridine (BrU) incorporation were examined to monitor overall RNA synthesis.
Prior to the trypsinisation, cells were treated with 1 mM BrU for 30 min. Subsequently, the cells were fixed in 1% paraformaldehyde with 0.05% of NP-40 for 15 min at RT and stored overnight at 4 °C. Fixed cells were washed with 1% glycine in PBS and stained with primary anti-BrdU antibody clone MoBu-1 crossreacting with BrU (Exbio, Vestec, Czech Republic) for 30 min at RT, washed with PBS and labelled with secondary anti-mouse-FITC antibody (Sigma-Aldrich, St. Louis, MO). Following 1-h incubation in 1% paraformaldehyde containing 0.05% NP-40, cells were stained with propidium iodide (0.1 mg/mL) and treated with RNase A (0.5 mg/mL) for 1 h at RT. The percentage of BrU positive cells was quantified using CellQuest software.

CCRF-CEM lymphoblasts [6] = assay: Phospho-histone H3 (Ser10) mitotic marker, flow cytometry; format: cell-based, human
Method: as §2
(§3) Treated CCRF-CEM cells were harvested, washed with ice-cold phosphate-buffered saline (PBS), fixed in cold 70% ethanol and stored at −20 °C. Prior to analysis, fixed cells were permeabilised with 0.25% Triton X-100 in PBS for 15 min, blocked in 1% bovine serum, and incubated with anti-phospho-Histone H3 (Ser^10) antibody (Merck Millipore, Burlington, MA). Subsequently, the cells were treated with 50 μg/mL RNAse, stained with propidium iodide and analysed by FACSCalibur (Becton Dickinson, Franklin Lakes, NJ) flow cytometer at 488 nm. Cell cycle distribution (G1, S, and G2/M) was analysed using ModFitLT software (Verity, Topsham, ME), and reflects only viable population prior to the fixing procedure. Particles with lower propidium iodide content than G1 phase cells were classified as non-viable cells with fragmented DNA. Flow cytometry data visualisation was performed using OriginPro 2018b (b9.5.5.409) software (OriginLab Corporation, Northampton, MA)[10].

[7] = system: A549 (lung adenocarcinoma); assay: MTS cytotoxicity assay, A549; format: cell-based, human; conditions: for IC50: Homo sapiens, A549, 72 h, read-out: IC50 cytotoxic activity A549
Method: as §1

[8] = system: CCRF-CEM (childhood T-cell acute lymphoblastic leukaemia); assay: MTS cytotoxicity assay, CCRF-CEM; format: cell-based; conditions: Homo sapiens, 72 h, read-out: IC50 cytotoxic activity CCRF-CEM
Method: as §1

[9] = MTS cytotoxicity assay, HUVEC; format: cell-based; conditions: human
Method: as §1

CCRF-CEM lymphoblasts [10] = assay: Cell cycle analysis by flow cytometry (propidium iodide); format: cell-based, human
Method: as §2, §3

[11] = MTS cytotoxicity assay, MRC-5; format: cell-based; conditions: human
Method: as §1

[12] = system: K562 (chronic myelogenous leukaemia); assay: MTS cytotoxicity assay, K562; format: cell-based; conditions: Homo sapiens, K562, 72 h, read-out: IC50 cytotoxic activity K562
Method: as §1

U2OS (osteosarcoma) = assay: MTS cytotoxicity assay, U2OS; format: cell-based, human; conditions: for IC50: Homo sapiens, U2OS, 72 h, read-out: IC50 cytotoxic activity U2OS
Method: as §1

[13] = system: CEM-DNR (daunorubicin resistant variant of CCRF-CEM); assay: MTS cytotoxicity assay, CEM-DNR; format: cell-based, human; conditions: Homo sapiens, CEM-DNR, 72 h, read-out: IC50 cytotoxic activity CEM-DNR
Method: as §1

CCRF-CEM lymphoblasts [14] = assay: BrDU incorporation analysis (DNA synthesis); format: cell-based, human
Method: as §2
Thirty minutes before harvesting, cells were pulse-labelled with 10 μM BrDU. After overnight fixation in ice-cold 70% ethanol, cells were resuspended in 2 M HCl for 30 min at room temperature (RT), then washed with 0.1 M Na2B4O7 and blocked with PBS containing 0.5% Tween-20 and 1% BSA. BrDU incorporation was analysed using anti-BrdU antibody clone MoBu-1 (Exbio, Vestec, Czech Republic) and a secondary anti-mouse-FITC antibody (Sigma-Aldrich, St. Louis, MO). Cells were washed with PBS and stained with 0.1 mg/mL propidium iodide and 0.5 mg/mL RNase A for 1 h at RT and analysed by flow cytometry using a 488 nm single beam laser (FACSCalibur, Becton Dickinson, Franklin Lakes, NJ). The percentage of cells with incorporated BrDU was analysed using CellQuest software.

T1 sequence (P02550 whole entry): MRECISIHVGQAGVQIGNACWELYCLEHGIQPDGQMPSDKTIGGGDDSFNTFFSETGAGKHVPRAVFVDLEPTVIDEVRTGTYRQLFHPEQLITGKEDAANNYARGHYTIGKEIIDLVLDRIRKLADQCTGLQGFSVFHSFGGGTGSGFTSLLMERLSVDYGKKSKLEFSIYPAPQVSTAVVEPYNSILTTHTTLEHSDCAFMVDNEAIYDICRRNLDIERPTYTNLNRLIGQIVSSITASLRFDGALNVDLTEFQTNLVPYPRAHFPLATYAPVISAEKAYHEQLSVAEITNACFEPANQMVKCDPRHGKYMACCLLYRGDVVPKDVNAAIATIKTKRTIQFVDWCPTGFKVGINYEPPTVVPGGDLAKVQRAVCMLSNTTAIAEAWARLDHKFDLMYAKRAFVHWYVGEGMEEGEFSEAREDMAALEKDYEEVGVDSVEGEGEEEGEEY
T1 sequence (P02554 whole entry): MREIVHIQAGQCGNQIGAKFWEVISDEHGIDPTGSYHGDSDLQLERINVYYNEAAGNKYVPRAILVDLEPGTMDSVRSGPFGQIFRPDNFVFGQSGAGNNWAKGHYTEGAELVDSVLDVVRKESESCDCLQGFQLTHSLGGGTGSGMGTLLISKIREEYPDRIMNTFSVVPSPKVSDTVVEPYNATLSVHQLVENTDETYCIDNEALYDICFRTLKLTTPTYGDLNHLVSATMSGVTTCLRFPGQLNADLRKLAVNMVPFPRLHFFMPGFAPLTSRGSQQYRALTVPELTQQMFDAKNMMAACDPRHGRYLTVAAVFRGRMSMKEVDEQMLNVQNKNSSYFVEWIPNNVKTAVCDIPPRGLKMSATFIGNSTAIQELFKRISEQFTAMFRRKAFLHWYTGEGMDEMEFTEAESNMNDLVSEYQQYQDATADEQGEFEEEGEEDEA

Compound	IC50 [1] [nM]	IC50 [2] [nM]	IC50 [3] [nM]	inhibitory activity against tubulin polymerisation (in words) (porcine brain tubulin)	IC50 at 72 h [4] [nM]	BrU, % of positive cells (CCRF-CEM lymphoblasts [5]; 1×IC50, 24 h) [%]	BrU, % of positive cells (CCRF-CEM lymphoblasts [5]; 5×IC50, 24 h) [%]	pH3Ser10, % of positive cells (CCRF-CEM lymphoblasts [6]; 1×IC50, 24 h) [%]	pH3Ser10, % of positive cells (CCRF-CEM lymphoblasts [6]; 5×IC50, 24 h) [%]	IC50 [7] [nM]	IC50 [8] [nM]	IC50 at 72 h [9] [nM]	<G1 (sub-G1, fragmented DNA), % of positive cells (CCRF-CEM lymphoblasts [10]; 1×IC50, 24 h) [%]	>G2/M (polyploidy), % of positive cells (CCRF-CEM lymphoblasts [10]; 1×IC50, 24 h) [%]	G0/G1, % of positive cells (CCRF-CEM lymphoblasts [10]; 1×IC50, 24 h) [%]	G2/M, % of positive cells (CCRF-CEM lymphoblasts [10]; 1×IC50, 24 h) [%]	S, % of positive cells (CCRF-CEM lymphoblasts [10]; 1×IC50, 24 h) [%]	<G1 (sub-G1, fragmented DNA), % of positive cells (CCRF-CEM lymphoblasts [10]; 5×IC50, 24 h) [%]	>G2/M (polyploidy), % of positive cells (CCRF-CEM lymphoblasts [10]; 5×IC50, 24 h) [%]	G0/G1, % of positive cells (CCRF-CEM lymphoblasts [10]; 5×IC50, 24 h) [%]	further results
C[C@]12CC[C@@H]3c4ccc(O)cc4CC[C@H]3[C@@H]1CC[C@@]2(O)c1cn(Cc2cccc(Cn3cc([C@]4(O)CC[C@H]5[C@@H]6CCc7cc(O)ccc7[C@H]6CC[C@@]54C)nn3)c2)nn1 [ED1, (17β,17′β)-17,17′-[Benzene-1,3-diylbis(methanediyl-1H-1,2,3-triazole-1,4-diyl)]bisestra-1,3,5(10)-triene-3,17-diol]	1580 ± 160	1500 ± 320	1410 ± 300	comparable or better inhibitory activity	> 50000	48.16	31.42	61.09	64.45	1680 ± 200	1600 ± 270	13.5 ± 2	55.53	10.7	0.28	74.70	25.01	64.75	17.65	0.27	IC50 cytotoxic activity K562-TAX [1]: sensitive; G2/M, % of positive cells (CCRF-CEM lymphoblasts [10]; 5×IC50, 24 h): 75.07%; S, % of positive cells (CCRF-CEM lymphoblasts [10]; 5×IC50, 24 h): 24.67%; IC50 at 72 h [11]: > 50000 nM; IC50 [12]: 1630 ± 120 nM; IC50 (U2OS (osteosarcoma)): 1950 ± 440 nM; IC50 [13]: > 50000 nM; BrDU, % of positive cells (CCRF-CEM lymphoblasts [14]; 1×IC50, 24 h): 38.15%; BrDU, % of positive cells (CCRF-CEM lymphoblasts [14]; 5×IC50, 24 h): 6.70%
Cc1cc(Cn2cc([C@]3(O)CC[C@H]4[C@@H]5CCc6cc(O)ccc6[C@H]5CC[C@@]43C)nn2)c(O)c(Cn2cc([C@]3(O)CC[C@H]4[C@@H]5CCc6cc(O)ccc6[C@H]5CC[C@@]43C)nn2)c1 [ED6, (17β,17′β)-17,17′-[(2-Hydroxy-5-methylbenzene-1,3-diyl)bis(methanediyl-1H-1,2,3-triazole-1,4-diyl)]bisestra-1,3,5(10)-triene-3,17-diol]	> 50000	1870 ± 130	1740 ± 110	comparable or better inhibitory activity	> 50000	67.97	39.43	9.07	0.76	8600 ± 2220	1540 ± 250	< 12.2	11.43	6.19	32.46	29.74	37.81	36.87	9.85	8.21	RNA synthesis, BrU incorporation (in words) (CCRF-CEM lymphoblasts [5]; 1× and 5×IC50, 24 h, gated remaining live cells): high rate of RNA synthesis; G2/M, % of positive cells (CCRF-CEM lymphoblasts [10]; 5×IC50, 24 h): 73.29%; S, % of positive cells (CCRF-CEM lymphoblasts [10]; 5×IC50, 24 h): 18.50%; IC50 at 72 h [11]: > 50000 nM; IC50 [12]: 1390 ± 210 nM; IC50 (U2OS (osteosarcoma)): 5060 ± 1680 nM; IC50 [13]: > 50000 nM; BrDU, % of positive cells (CCRF-CEM lymphoblasts [14]; 1×IC50, 24 h): 37.25%; BrDU, % of positive cells (CCRF-CEM lymphoblasts [14]; 5×IC50, 24 h): 7.83%
CC(=O)Oc1cc(Cn2cc([C@]3(O)CC[C@H]4[C@@H]5CCc6cc(O)ccc6[C@H]5CC[C@@]43C)nn2)cc(Cn2cc([C@]3(O)CC[C@H]4[C@@H]5CCc6cc(O)ccc6[C@H]5CC[C@@]43C)nn2)c1 [ED4, 3,5-Bis({4-[(17β)-3,17-dihydroxyestra-1,3,5(10)-trien-17-yl]-1H-1,2,3-triazol-1-yl}methyl)phenyl acetate]	> 50000	2150 ± 100	2060 ± 180	comparable or better inhibitory activity	> 50000	66.58	3.26	1.25	0.12	> 50000	1090 ± 110	16 ± 6	61.81	6.75	25.61	40.50	33.89	31.27	10.24	8.75	mitosis-specific phosphorylation of histone H3 (in words) (CCRF-CEM lymphoblasts [6]; 1× and 5×IC50, 24 h): did not induce an increase of mitosis-specific phosphorylation of histone H3; IC50 cytotoxic activity A549 [7]: did not exhibit activity; G2/M, % of positive cells (CCRF-CEM lymphoblasts [10]; 5×IC50, 24 h): 71.41%; S, % of positive cells (CCRF-CEM lymphoblasts [10]; 5×IC50, 24 h): 19.84%; IC50 at 72 h [11]: > 50000 nM; IC50 [12]: 490 ± 40 nM; IC50 cytotoxic activity U2OS (U2OS (osteosarcoma)): did not exhibit activity; IC50 (U2OS (osteosarcoma)): > 50000 nM; IC50 [13]: > 50000 nM; BrDU, % of positive cells (CCRF-CEM lymphoblasts [14]; 1×IC50, 24 h): 26.50%; BrDU, % of positive cells (CCRF-CEM lymphoblasts [14]; 5×IC50, 24 h): 7.16%
